According to publication PMC6222718, “Ethylenediamine Derived Carboxamides of Betulinic and Ursolic Acid as Potential Cytotoxic Agents” (Molecules : A Journal of Synthetic Chemistry and Natural …, 2018):
“Also recorded” adds a separate entry of the source.

What was measured:
MCF-7 cells = assay: AO/PI dye exclusion test, MCF-7; type: cell-based, human; conditions: 24 h
Description: (§1) Extended biological investigations were performed for compounds 25 and 26 using dye exclusion acridine orange (AO)/propidium iodide (PI) assays by treating MCF-7 or A2780 tumor cells with 25 and 26, respectively for 24 h (Figure 3). […] For both compounds, membrane blebbing of some cells could also be observed. These observations can be regarded as indications of apoptosis.
(§2) Morphological characteristics of cell death were analyzed employing an AO/PI assay using human cancer cell lines A2780 and MCF-7. Approximately 8 × 10^5 cells were seeded in cell culture flasks (25 cm^2), and the cells were allowed to grow for 24 h. After removing the used medium, fresh medium was reloaded (or a blank new medium was used as a control). After 24 h, the content of the flask was collected and centrifuged (1200 rpm, 4 °C), and the pellet was gently suspended in phosphate-buffered saline (PBS (w/w), 1 mL) and centrifuged again. The PBS was removed, and the pellet gently suspended in PBS (50 µL) again. The analysis of the cells was performed using a fluorescence microscope after having mixed the cell suspension (10 µL) with a solution of AO/PI (1 µg/mL, 10 µL).

[1] = system: A2780 (ovarian carcinoma); assay: SRB cytotoxicity assay, A2780; type: cell-based, human; conditions: for factor by which activity is reduced compared to doxorubicin hydrochloride (DRC): A2780 tumor cells, EC50 versus DRC; for EC50: Homo sapiens, SRB assay, 96 h of treatment, A2780; for Selectivity index (SI) A2780: SI = EC50 (NIH 3T3)/EC50 (A2780)
Description: (§3) The cytotoxicity of ursolic and betulinic carboxamides 3–30 was determined in sulforhodamine B (SRB) assays.
(§4) The cell lines used were human cancer cell lines: 518A2 (melanoma), A2780 (ovarian carcinoma), HT29 (colon adenocarcinoma), MCF-7 (breast adenocarcinoma), 8505C (thyroid carcinoma) and non-malignant mouse fibroblasts NIH 3T3. Cultures were maintained as monolayers in RPMI 1640 medium with L-glutamine (Capricorn Scientific GmbH, Ebsdorfergrund, Germany) supplemented with 10% heat inactivated fetal bovineserum (Sigma-Aldrich Chemie GmbH, Steinheim, Germany) and penicillin/streptomycin (Capricorn Scientific GmbH, Ebsdorfergrund, Germany) at 37 °C in a humidified atmosphere with 5% CO2.
(§5) The cytotoxicity of the compounds was evaluated using the sulforhodamine-B (Kiton-Red S, ABCR) micro culture colorimetric assay. Cells were seeded into 96-well plates on day 0 at appropriate cell densities to prevent confluence of the cells during the period of experiment. After 24 h, the cells were treated with 6 different concentrations (1, 3, 7, 12, 20 and 30 µM) minimum. The final concentration of DMSO/DMF never exceeded 0.5%, which was non-toxic to the cells. After a 96 h treatment, the supernatant medium from the 96-well plates was discarded, the cells were fixed with 10% trichloroacetic acid (TCA) and allowed to rest at 4 °C. After 24 h fixation, the cells were washed in a strip washer and dyed with SRB solution (100 µL, 0.4% in 1% acetic acid) for about 20 min. After dying, the plates were washed four times with 1% acetic acid to remove the excess of the dye and allowed to air-dry overnight. Tris base solution (200 µL, 10 mM) was added to each well and absorbance was measured at λ = 570 nm using a 96-well plate reader (Tecan Spectra, Crailsheim, Germany). The EC50 values were averaged from three independent experiments performed each in triplicate calculated from semi logarithmic dose response curves applying a non-linear 4P Hills-slope equation (GraphPad Prism5; variables top and bottom were set to 100 and 0, respectively).

[2] = system: 8505C (thyroid carcinoma); assay: SRB cytotoxicity assay, 8505C; type: cell-based, human; conditions: for EC50: Homo sapiens, SRB assay, 96 h of treatment, 8505C; for Selectivity index (SI) 8505C: SI = EC50 (NIH 3T3)/EC50 (8505C)
Description: as §3, §4, §5

A2780 cells = assay: AO/PI dye exclusion test, A2780; type: cell-based, human; conditions: 1 µM, 24 h
Description: as §1, §2

[3] = system: HT29 (colon adenocarcinoma); assay: SRB cytotoxicity assay, HT29; type: cell-based, human; conditions: for EC50: Homo sapiens, HT-29, SRB assay, 96 h of treatment, HT29; for Selectivity index (SI) HT29: SI = EC50 (NIH 3T3)/EC50 (HT29)
Description: as §3, §4, §5

[4] = system: MCF-7 (breast adenocarcinoma); assay: SRB cytotoxicity assay, MCF-7; type: cell-based, human; conditions: for EC50: Homo sapiens, MCF7, SRB assay, 96 h of treatment, MCF-7; for Selectivity index (SI) MCF-7: SI = EC50 (NIH 3T3)/EC50 (MCF-7)
Description: as §3, §4, §5

518A2 (melanoma) = assay: SRB cytotoxicity assay, 518A2; type: cell-based, human; conditions: for EC50: Homo sapiens, SRB assay, 96 h of treatment, 518A2; for Selectivity index (SI) 518A2: SI = EC50 (NIH 3T3)/EC50 (518A2)
Description: as §3, §4, §5

[5] = system: non-malignant mouse fibroblasts NIH 3T3; assay: SRB cytotoxicity assay, NIH 3T3; type: cell-based; conditions: NIH3T3, 96 h of treatment
Description: as §3, §4, §5

[6] = system: several human tumor cell lines; assay: SRB cytotoxicity assay, cell line panel (summary statements); type: cell-based; conditions: for EC50: Homo sapiens, summary over the cell lines tested; for SI factors (over the cancerous cell lines): SI = EC50 (NIH 3T3)/EC50 (tumor cell line), summary
Description: as §3, §4, §5

| SMILES | AO/PI fluorescence microscopy, cell morphology (MCF-7 cells; 1 µM) | factor by which activity is reduced compared to doxorubicin hydrochloride (DRC) [1] | EC50 [1] [nM] | Selectivity index (SI) A2780 [1] | EC50 [2] [nM] | Selectivity index (SI) 8505C [2] | AO/PI fluorescence microscopy, cell morphology (A2780 cells) | EC50 [3] [nM] | Selectivity index (SI) HT29 [3] | EC50 [4] [nM] | Selectivity index (SI) MCF-7 [4] | EC50 (518A2 (melanoma)) [nM] | Selectivity index (SI) 518A2 (518A2 (melanoma)) | EC50 [5] [nM] | EC50 [6] [nM] | SI factors (over the cancerous cell lines) [6] | AO/PI fluorescence microscopy, cell morphology (MCF-7 cells; 0.75 µM) | melting point |
| --- | --- | --- | --- | --- | --- | --- | --- | --- | --- | --- | --- | --- | --- | --- | --- | --- | --- | --- |
| C=C(C)C1CC[C@]2(C(=O)NCCN(C)C)CC[C@]3(C)C(CCC4[C@@]5(C)CC[C@H](O)C(C)(C)C5CC[C@]43C)C12 (stereo partly drawn) [Compound 25, (3β)-N-[2-(Dimethylamino)ethyl]-3-hydroxy-lup-20(29)-en-28-amide] | both apoptotic (membrane blebbing, marked by white arrows in Figure 3) and necrotic cells (red staining) | 20 | 200 ± 10 | 1.50 | 400 ± 40 | 0.75 | both green colored cells as well as late-stage apoptotic cells | 300 ± 50 | 1.00 | 300 ± 70 | 1.00 | 300 ± 160 | 1.00 | 300 ± 90 | < 1000 | ~1 |  |  |
| C=C(C)C1CC[C@]2(C(=O)NCCN3CCCC3)CC[C@]3(C)C(CCC4[C@@]5(C)CC[C@H](O)C(C)(C)C5CC[C@]43C)C12 (stereo partly drawn) [Compound 26, (3β)-N-(2-Pyrrolidin-1-ylethyl)-3-hydroxy-lup-20(29)-en-28-amide] |  | 30 | 300 ± 100 | 1.33 | 500 ± 60 | 0.80 | both green colored cells as well as late-stage apoptotic cells | 400 ± 20 | 1.00 | 200 ± 50 | 2.00 | 400 ± 60 | 1.00 | 400 ± 20 | < 1000 | ~1 | intact cell membranes (green staining); also recorded: protrusions in the plasma membrane (blebbing) of some cells |  |
| C=C(C)C1CC[C@]2(C(=O)NCCOCCN)CC[C@]3(C)C(CCC4[C@@]5(C)CC[C@H](O)C(C)(C)C5CC[C@]43C)C12 (stereo partly drawn) [Compound 30, (3β)-N-[2-(2-Aminoethoxy)ethyl]-3-hydroxy-lup-20(29)-en-28-amide] |  |  | 500 ± 40 | 0.80 | 200 ± 10 | 2.00 |  | 500 ± 70 | 0.80 | 400 ± 200 | 1.00 | 500 ± 40 | 0.80 | 400 ± 70 |  |  |  | 182 to 183 °C |
| C=C(C)C1CC[C@]2(C(=O)NCCN3CCCC3)CC[C@]3(C)C(CCC4[C@@]5(C)CC[C@H](OC(C)=O)C(C)(C)C5CC[C@]43C)C12 (stereo partly drawn) [Compound 19, (3β)-N-(2-Pyrrolidin-1-ylethyl)-3-acetyloxy-lup-20(29)-en-28-amide] |  |  | 1400 ± 90 | 0.86 | 1600 ± 90 | 0.75 |  | 500 ± 80 | 2.40 | 1200 ± 200 | 1.00 | 1500 ± 100 | 0.80 | 1200 ± 70 |  |  |  | 143 to 145 °C |
| C[C@@H]1CC[C@]2(C(=O)NCCN(C)C)CC[C@]3(C)C(=CCC4[C@@]5(C)CC[C@H](O)C(C)(C)C5CC[C@]43C)C2[C@H]1C (stereo partly drawn) [Compound 11, (3β)-N-[2-(Dimethylamino)ethyl]-3-hydroxy-urs-12-en-28-amide] |  |  | 4300 ± 500 | 1.56 | 7300 ± 200 | 0.92 |  | 3000 ± 200 | 2.23 | 4200 ± 900 | 1.60 | 6600 ± 300 | 1.02 | 6700 ± 1300 |  |  |  | 270 to 273 °C (dec.) |
| CC(=O)O[C@H]1CC[C@@]2(C)C(CC[C@]3(C)C2CC=C2C4[C@@H](C)[C@H](C)CC[C@]4(C(=O)NCCOCCN)CC[C@]23C)C1(C)C (stereo partly drawn) [Compound 9, (3β)-N-[2-(2-Aminoethoxy)ethyl]-3-acetyloxy-urs-12-en-28-amide] |  |  | 3400 ± 500 | 0.91 | 5800 ± 400 | 0.53 |  | 1600 ± 100 | 1.93 | 2300 ± 400 | 1.35 | 3500 ± 600 | 0.89 | 3100 ± 400 |  |  |  | 91 to 94 °C |
